Test results published in ChEMBL document CHEMBL1152948, “Antimycobacterial activity of new 3,5-disubstituted 1,3,4-oxadiazol-2(3H)-one derivatives. Molecular modeling investigations” (2009).
Converted amounts (≈) assume the structure as drawn. The source made the active and inactive calls. The calls are words filed in the database; no cut-off is given here.

Test system: Mycobacterium tuberculosis
Assay: Antitubercular activity against Mycobacterium tuberculosis H37Rv by microdilution resazurin assay
Format: functional

Row | SMILES | MIC [µg/mL]
1 | CC1CCCN(Cn2nc(-c3cnccn3)oc2=O)C1 (configuration not stated) | > 64
2 | O=c1oc(-c2ccccn2)nn1CN1CCCCC1 | 4 (≈ 15.4 µM)
3 | CC1CCCN(Cn2nc(-c3cccnc3)oc2=O)C1 (configuration not stated) | 32 (≈ 117 µM)
4 | CC1CCCCN1Cn1nc(-c2ccccc2)oc1=O (configuration not stated) | 32 (≈ 117 µM)
5 | CC1CCN(Cn2nc(-c3cnccn3)oc2=O)CC1 | > 64
6 | CN(Cc1cccc(Br)c1)Cn1nc(-c2ccncc2)oc1=O | 4 (≈ 10.7 µM)
7 | O=c1[nH]nc(-c2ccccc2)o1 | 32 (≈ 197 µM)
8 | CC1CCN(Cn2nc(-c3ccccn3)oc2=O)CC1 | 4 (≈ 14.6 µM)
9 | O=c1[nH]nc(-c2ccccn2)o1 | 4 (≈ 24.5 µM)
10 | CN(Cc1cccc(F)c1)Cn1nc(-c2ccncc2)oc1=O | 8 (≈ 25.5 µM)
11 | Cc1ccc(CN(C)Cn2nc(-c3ccncc3)oc2=O)cc1 | 4 (≈ 12.9 µM)
12 | NNC(=O)c1ccncc1 [ISONIAZID] | 0.5 (≈ 3.65 µM)
13 | CN(Cc1ccc(Br)cc1)Cn1nc(-c2ccncc2)oc1=O | 4 (≈ 10.7 µM)
14 | CN(Cc1ccccc1F)Cn1nc(-c2ccncc2)oc1=O | 4 (≈ 12.7 µM)
15 | CO[C@H]1/C=C/O[C@@]2(C)Oc3c(C)c(O)c4c(O)c(c(/C=N/N5CCN(C)CC5)c(O)c4c3C2=O)NC(=O)/C(C)=C\C=C\[C@H](C)[C@H](O)[C@@H](C)[C@@H](O)[C@@H](C)[C@H](OC(C)=O)[C@@H]1C [RIFAMPIN] | 1 (≈ 1.22 µM)
16 | CC1CCN(Cn2nc(-c3cccnc3)oc2=O)CC1 | > 64
17 | CC1CCCCN1Cn1nc(-c2ccccn2)oc1=O (configuration not stated) | 4 (≈ 14.6 µM)
18 | O=c1[nH]nc(-c2cnccn2)o1 | > 64

Row | SMILES | MIC [µg/mL]
19 | CC1CCN(Cn2nc(-c3ccccc3)oc2=O)CC1 | 32 (≈ 117 µM)
20 | CN(Cc1ccccc1Cl)Cn1nc(-c2ccncc2)oc1=O | 8 (≈ 24.2 µM)
21 | O=c1[nH]nc(-c2cccnc2)o1 | 32 (≈ 196 µM)
22 | CC1CCCCN1Cn1nc(-c2cccnc2)oc1=O (configuration not stated) | 32 (≈ 117 µM)
23 | CN(Cc1cccc(Cl)c1)Cn1nc(-c2ccncc2)oc1=O | 8 (≈ 24.2 µM)
24 | O=c1oc(-c2ccccc2)nn1CN1CCCCC1 | 32 (≈ 123 µM)
25 | CN(Cc1ccc(F)cc1)Cn1nc(-c2ccncc2)oc1=O | 4 (≈ 12.7 µM)
26 | CN(Cc1ccccc1Br)Cn1nc(-c2ccncc2)oc1=O | 8 (≈ 21.3 µM)
27 | O=c1[nH]nc(-c2ccncc2)o1 [NEOVADRINE] | 4 (≈ 24.5 µM)
28 | CC1CCCN(Cn2nc(-c3ccccn3)oc2=O)C1 (configuration not stated) | 4 (≈ 14.6 µM)
29 | O=c1oc(-c2cnccn2)nn1CN1CCCCC1 | > 64
30 | CC1CCCN(Cn2nc(-c3ccccc3)oc2=O)C1 (configuration not stated) | 32 (≈ 117 µM)
31 | CN(Cc1ccc(Cl)cc1Cl)Cn1nc(-c2ccncc2)oc1=O | 8 (≈ 21.9 µM)
32 | O=c1oc(-c2cccnc2)nn1CN1CCCCC1 | 32 (≈ 123 µM)
33 | CN(Cc1ccccc1)Cn1nc(-c2ccncc2)oc1=O | 8 (≈ 27 µM)
34 | CN(Cc1ccc(Cl)cc1)Cn1nc(-c2ccncc2)oc1=O | 8 (≈ 24.2 µM)
35 | CN(Cc1cccc2ccccc12)Cn1nc(-c2ccncc2)oc1=O | 8 (≈ 23.1 µM)

Test system: Mycobacterium tuberculosis
Assay: Antitubercular activity against Mycobacterium tuberculosis H37Rv at 30 ug/disk by microdilution resazurin assay
Format: functional, organism-based

Row | SMILES | Activity
36 | CO[C@H]1/C=C/O[C@@]2(C)Oc3c(C)c(O)c4c(O)c(c(/C=N/N5CCN(C)CC5)c(O)c4c3C2=O)NC(=O)/C(C)=C\C=C\[C@H](C)[C@H](O)[C@@H](C)[C@@H](O)[C@@H](C)[C@H](OC(C)=O)[C@@H]1C [RIFAMPIN] | Active

Test system: Mycobacterium tuberculosis
Assay: Antitubercular activity against Mycobacterium tuberculosis H37Rv at 5 ug/disk by microdilution resazurin assay
Format: functional, organism-based

Row | SMILES | Activity
37 | NNC(=O)c1ccncc1 [ISONIAZID] | Active
